Source: patent US20150314021A1, “STERILIZATION METHOD COMPRISING STERILIZATION FLUID AND ULTRASONICALLY GERERATED CAVITATION MICROBUBBLES” (DEVIS TECHNOLOGIES INC., priority 2012, published 2015)
Where two headings read alike, the source gives them in different places.

Key:
[1] = tested on: Bacillus atrophaeus and Bacillus stearothermophilus; assay: Reduction in viable cell count after 5 min exposure to sterilant and/or ultrasound; assay type: cell-based
Procedure: Comparative testing with exposure for 5 min to ultrasound at 250 kHz, 500 kHz and 1 MHz and using ultrasound and sterilant in separation as well as in combination was conducted and the reduction in viable cell count was determined using standard methodology.

[2] = tested on: Bacillus atrophaeus and Bacillus stearothermophilus; assay: Growth of surviving bacteria colonies after exposure; assay type: cell-based; conditions: 500 kHz test; observed at 24, 48 and 96 hours (FIGS. 8 and 9)
From the text: In the parallel tests with hydrogen peroxide and ultrasound, the effect was much less significant (see FIG. 10) than with the test series using ultrasound and ozone. The effect seems to be more evident with ozone than with hydrogen peroxide. […] At the very least their reproductive system appears to have been severely compromised.

[3] = 500 kHz test series, cells suspended in distilled water, ozone 3.7 ppm, hydrogen peroxide 1.5% w/w, glutaraldehyde 0.2%, control normalized 100%

Compound	inhibition at 1.5 % strength ([1]; 1 MHz test series, cells suspended in distilled water, ozone 3.7 ppm, hydrogen peroxide 1.5% w/w, control normalized 100%, read-out: Percentage reduction in number of viable cells upon a 5 minute exposure) [%]	inhibition at 1.5 % strength ([1]; read-out: Percentage reduction in number of viable cells upon a 5 minute exposure, 500 kHz test series, cells suspended in distilled water, ozone 3.7 ppm, hydrogen peroxide 1.5% w/w, glutaraldehyde 0.2%, control normalized 100%) [%]	Percentage reduction in number of viable cells upon a 5 minute exposure [1, 3] [%]	Percentage reduction in number of viable cells upon a 5 minute exposure ([1]; 1 MHz test series, cells suspended in distilled water, ozone 3.7 ppm, hydrogen peroxide 1.5% w/w, control normalized 100%) [%]	growth of surviving bacteria colonies after exposure [2]
OO [Hydrogen Peroxide, hydrogen peroxide]	68	59			
O=CCCCC=O [Glutaraldehyde, glutaraldehdye]			86		
O=[O+][O-] [Ozone]			81	71	bacteria colonies were visible after 24 hours
